Measured values: patent publication US10940139B2, “Compounds that interact with the Ras superfamily for the treatment of cancers, inflammatory diseases, rasopathies, and fibrotic disease” (Shy Therapeutics LLC, priority 2017, dated 2021)

What was measured:
[1] = biological target: GTP binding domain of Ras; conditions: literature, kinetic and filter binding measurements with radiolabeled GDP and GTP; cited from earlier work
Rac-1 [2] = biological target: T1, Rac-1 (Homo sapiens (Human), UniProt P63000); test: Scintillation Proximity Assay (SPA), GTP affinity for binding domain
K-Ras (Q61H/G12D) [3] = biological target: T2, K-Ras (Q61H/G12D) (Homo sapiens (Human), UniProt P01116, G12D/Q61H); test: MicroScale Thermophoresis (MST), GTP affinity for binding domain
Text: (§1) For the first time, the affinity of GTP for the GTP binding domain of K-Ras utilizing a Scintillation Proximity Assay (SPA) and MicroScale Thermophoresis (MST) has been measured and disclosed herein. These methods were not available when Wittinghofer and colleagues undertook their studies.
(§2) This therefore led to the novel, unanticipated conclusion that compounds such as small molecules could be discovered that would bind to a Ras GTP binding domain and compete with the binding of GTP to Ras.
(§3) See Khawaja et al., “Scintillation proximity assay in lead discovery”, Expert Opin. Drug Discov., 2008 November; 3(11):1267-80 regarding SPA procedures. See the following references regarding MST technology: Wienken et al., Nature Communications (2010), Protein binding assays in biological liquids using MicroScale Thermophoresis; Jerabek-Willemsen et al., ASSAY and Drug Development Technologies (2011), Molecular interaction studies using MicroScale Thermophoresis; Lin et al., Cell (2012), Inhibition of basal FGF receptor signaling by dimeric Grb2; Seidel et al., Angewandte Chemie (2012), Label-Free MicroScale Thermophoresis discriminates sites and affinity of protein-ligand binding; Seidel et al., Methods (2012), MicroScale Thermophoresis quantifies biomolecular interactions under previously challenging conditions; Parker & Newstead, Nature (2014), Molecular basis of nitrate uptake by the plant nitrate transporter NRT1.1; and Jerabek-Willemsen et al., Journal of Molecular Structure (2014), MicroScale Thermophoresis: Interaction analysis and beyond.

K-Ras (Q61H/G12C) [4] = biological target: T3, K-Ras (Q61H/G12C) (Homo sapiens (Human), UniProt P01116, G12C/Q61H); test: as above
Text: as §1, §2, §3

KRas wild type [5] = biological target: T4, KRas wild type (Homo sapiens (Human), UniProt P01116); test: as above
Text: as §1, §2, §3

K-Ras (Q61H) [6] = biological target: T5, K-Ras (Q61H) (Homo sapiens (Human), UniProt P01116, Q61H); test: as above
Text: as §1, §2, §3

K-Ras (G12D) [7] = biological target: T6, K-Ras (G12D) (Homo sapiens (Human), UniProt P01116, G12D); test: as above
Text: as §1, §2, §3

K-Ras (G12C) [8] = biological target: T7, K-Ras (G12C) (Homo sapiens (Human), UniProt P01116, G12C); test: as above
Text: as §1, §2, §3

Rac-1 [9] = biological target: T1, Rac-1; test: as above
K-Ras (Q61H/G12D) [10] = biological target: T2, K-Ras (Q61H/G12D); test: Scintillation Proximity Assay (SPA), GTP affinity for binding domain
Text: as §1, §2, §3

K-Ras (Q61H/G12C) [11] = biological target: T3, K-Ras (Q61H/G12C); test: as above
Text: as §1, §2, §3

KRas wild type [12] = biological target: T4, KRas wild type; test: as above
Text: as §1, §2, §3

K-Ras (Q61H) [13] = biological target: T5, K-Ras (Q61H); test: as above
Text: as §1, §2, §3

K-Ras (G12D) [14] = biological target: T6, K-Ras (G12D); test: as above
Text: as §1, §2, §3

K-Ras (G12C) [15] = biological target: T7, K-Ras (G12C); test: as above
Text: as §1, §2, §3

[16] = biological target: K-Ras GTP binding domain across wild type and mutant K-Ras; test: SPA and MST studies, summary range across K-Ras forms; conditions: read-out: affinity of GTP for the K-Ras GTP binding domain
Text: as §1, with “colleagues (referenced above)” for “colleagues”
as §2, §1
See Khawaja et al., “Scintillation proximity assay in lead discovery”, Expert Opin. Drug Discov., 2008 November; 3(11):1267-80 regarding SPA procedures. […]

[17] = biological target: Rac-1 and Rho-A members of the Rho subfamily; test: SPA and MST studies, summary range for Rho subfamily members; conditions: read-out: affinity of GTP for the binding domain of Rho subfamily members
Text: as §2, §3

Rho-A [18] = biological target: T8, Rho-A (Homo sapiens (Human), UniProt P61586); test: MicroScale Thermophoresis (MST), GTP affinity for binding domain
Rho-A [19] = biological target: T8, Rho-A; test: Scintillation Proximity Assay (SPA), GTP affinity for binding domain
[20] = tested on: MIA-PACA2 pancreatic cancer cell lines; test: Cell proliferation assay, alternate assay conditions (DAPI fluorescence); type: cell-based; conditions: Homo sapiens, MIA PaCa-2; * = tested at 10 μM, alternate conditions, MIA-PACA2
Procedure, shortened: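 MIA-PACA2 cells were treated the day after plating with 10 μM compound or serial dilutions for IC50 (0.3% DMSO, 10% FBS) for 4 days at 37 °C. Cells were fixed in acetone-methanol and stained with DAPI (1 μg/ml), and fluorescence was read at 358/461 nm. Inhibition was calculated taking the No Serum cell value as 100%.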

[21] = tested on: MIA-PACA2 pancreatic cancer cell lines; test: Cell proliferation assay (CellTiter 96 AQueous One); type: cell-based; conditions: Homo sapiens, MIA PaCa-2; for IC50: MIA-PACA2, compound tested under both conditions, which assay gave the IC50 is not stated; for inhibition at 30 µM: MIA-PACA2

T4 sequence (P01116-2 other isoform, or with tags, fused parts or gaps): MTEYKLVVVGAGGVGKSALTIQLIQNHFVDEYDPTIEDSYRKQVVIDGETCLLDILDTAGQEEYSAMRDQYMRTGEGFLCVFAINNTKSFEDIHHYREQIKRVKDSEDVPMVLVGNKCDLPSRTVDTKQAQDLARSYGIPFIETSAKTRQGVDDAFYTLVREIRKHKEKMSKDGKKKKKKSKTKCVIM
T8 sequence (P61586 whole entry, the tested form may be a part): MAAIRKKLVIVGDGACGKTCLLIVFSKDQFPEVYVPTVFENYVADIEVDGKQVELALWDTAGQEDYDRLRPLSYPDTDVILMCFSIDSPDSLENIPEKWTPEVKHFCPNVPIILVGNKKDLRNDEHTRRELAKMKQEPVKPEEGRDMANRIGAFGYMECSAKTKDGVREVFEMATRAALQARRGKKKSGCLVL
T7 sequence (P01116-2 other isoform, or with tags, fused parts or gaps G12C): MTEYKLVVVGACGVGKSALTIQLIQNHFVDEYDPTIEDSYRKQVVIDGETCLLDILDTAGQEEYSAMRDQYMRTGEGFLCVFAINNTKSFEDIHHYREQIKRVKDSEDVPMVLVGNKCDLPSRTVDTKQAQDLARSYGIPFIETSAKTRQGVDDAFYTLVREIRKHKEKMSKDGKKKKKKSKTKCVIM
T3 sequence (P01116-2 other isoform, or with tags, fused parts or gaps G12C/Q61H): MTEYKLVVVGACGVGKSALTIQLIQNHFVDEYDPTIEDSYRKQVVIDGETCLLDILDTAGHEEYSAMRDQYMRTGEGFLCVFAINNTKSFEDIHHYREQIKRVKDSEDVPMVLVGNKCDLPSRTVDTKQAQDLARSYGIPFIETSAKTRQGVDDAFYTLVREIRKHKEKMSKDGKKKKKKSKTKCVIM
T2 sequence (P01116-2 other isoform, or with tags, fused parts or gaps G12D/Q61H): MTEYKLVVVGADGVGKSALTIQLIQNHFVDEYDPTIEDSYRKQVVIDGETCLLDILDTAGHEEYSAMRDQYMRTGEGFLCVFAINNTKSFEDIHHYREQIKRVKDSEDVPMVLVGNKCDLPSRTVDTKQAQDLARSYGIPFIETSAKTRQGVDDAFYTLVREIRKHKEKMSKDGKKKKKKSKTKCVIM
T5 sequence (P01116-2 other isoform, or with tags, fused parts or gaps Q61H): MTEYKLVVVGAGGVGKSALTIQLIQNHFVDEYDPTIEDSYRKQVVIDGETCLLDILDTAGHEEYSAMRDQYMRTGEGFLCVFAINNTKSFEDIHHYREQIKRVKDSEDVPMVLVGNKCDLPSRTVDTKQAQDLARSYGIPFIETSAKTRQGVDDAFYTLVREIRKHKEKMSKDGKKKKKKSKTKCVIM
T6 sequence (P01116-2 other isoform, or with tags, fused parts or gaps G12D): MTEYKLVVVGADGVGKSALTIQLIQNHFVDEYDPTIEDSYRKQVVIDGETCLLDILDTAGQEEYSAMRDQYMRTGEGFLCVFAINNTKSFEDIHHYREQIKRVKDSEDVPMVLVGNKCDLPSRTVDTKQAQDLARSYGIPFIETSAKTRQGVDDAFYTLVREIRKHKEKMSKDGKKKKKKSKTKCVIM

SMILES: Nc1nc2c(ncn2[C@@H]2O[C@H](COP(=O)(O)OP(=O)(O)O)[C@@H](O)[C@H]2O)c(=O)[nH]1 [GDP]
- affinity for the GTP binding domain of Ras [1]: single to double digit picomolar

SMILES: Nc1nc2c(ncn2[C@@H]2O[C@H](COP(=O)(O)OP(=O)(O)OP(=O)(O)O)[C@@H](O)[C@H]2O)c(=O)[nH]1 [GTP]
- Kd (Rac-1 [2]): 151 ± 14 nM
- Kd (K-Ras (Q61H/G12D) [3]): 268 ± 108 nM
- Kd (K-Ras (Q61H/G12C) [4]): 266 ± 57 nM
- Kd (KRas wild type [5]): 463 ± 2 nM
- Kd (K-Ras (Q61H) [6]): 157 ± 21 nM
- Kd (K-Ras (G12D) [7]): 244 ± 12 nM
- Kd (K-Ras (G12C) [8]): 207 ± 46 nM
- Kd (Rac-1 [9]): 166 ± 10 nM
- Kd (K-Ras (Q61H/G12D) [10]): 135 ± 19 nM
- Kd (K-Ras (Q61H/G12C) [11]): 104 ± 11 nM
- Kd (KRas wild type [12]): 243 ± 15 nM
- Kd (K-Ras (Q61H) [13]): 118 ± 11 nM
- Kd (K-Ras (G12D) [14]): 270 ± 15 nM
- Kd (K-Ras (G12C) [15]): 258 ± 18 nM
- Kd [16]: 100 to 465 nM
- Kd [17]: 120 to 170 nM
- Kd (Rho-A [18]): 130 ± 5 nM
- affinity for the GTP binding domain of Ras [1]: single to double digit picomolar
- Kd (Rho-A [19]): 129 ± 12 nM

SMILES: CC(C)COc1ccc(-c2csc3c(O)nc(-c4ccccn4)nc23)cn1 [drawing 1753]
- inhibition at 10 µM [20]: 76 to 100%
- IC50 [21]: 501 to 1000 nM
- inhibition at 30 µM [21]: 76 to 100%

SMILES: Oc1nc(-c2ccccn2)nc2c(-c3ccccn3)csc12 [drawing 1772]
- inhibition at 10 µM [20]: 76 to 100%
- IC50 [21]: > 1000 nM
- inhibition at 30 µM [21]: 76 to 100%
